Test results as given in patent US20260076885A1, “Complexation of Oxybenzone with C-methylresorcin[4]arene” (University of Cincinnati, priority 2021, published 2026).

How the values were obtained:
[1] = in vitro; type: in vitro ADME, human
Description: The skin permeation of OXB was evaluated using 6% OXB formulations with and without RsC1 in a Franz diffusion cell (FIG. 9 and Table 1).
The amounts of OXB remaining on the skin surface, inside the skin, and on the surface of the donor chamber cap were also determined at the end of the skin permeation experiments. The average total recovery of OXB from the permeation study was approximately 75%.
In addition, the amount of RsC1 that permeated through the skin to the receptor chamber was determined using an HPLC assay.
Rinse 1: rinsing once using receptor chamber solution (PBS with 0.02% sodium azide and 3% cyclodextrin); Rinse 2: rinsing four times using a methanol/water (85:15) solution. The values for the rinses, cut-up skin, and donor chamber cap were adjusted to correct for the extraction method and RsC1 interference during the OXB assay.
Skin permeation studies of OXB were performed using split-thickness human skin in a Franz diffusion cell with a 0.7 cm2 diffusion area. The skin samples were labeled with the code of the skin donor (n=3, CC, RT, or SL) and the same group of skin donors was used in each experiment. To prepare the skin samples, the cadaver skin was cut into 1.5 cm×1.5 cm pieces, thawed in Petri dishes with PBS at room temperature for 2 h, and then patted dry with Kimwipes before being mounted onto the diffusion cell with the stratum corneum side facing up. PBS containing 0.02% sodium azide as a preservative and 3% cyclodextrin as a solubilizing agent for OXB was used as the solution in the receptor chamber. The TEWL of the skin sample was measured to ensure skin integrity before the permeation study. For TEWL measurements, a vapometer was placed on top of the donor chamber of the diffusion cell and the measurement was repeated until a constant TEWL value was obtained (2-3 measurements, 15 min apart). Only skin samples with TEWL values of <10 g/m2/h were used for permeation experiments.
After the TEWL measurement, the skin in the diffusion cell was allowed to equilibrate for 1 h. During this equilibration period, the skin surface was maintained at 32±1° C. The receptor medium was stirred with a magnetic stirrer at 600 rpm to ensure uniform mixing. The permeation study was initiated by applying 2 mg/cm2 of the test formulation on the skin surface in the diffusion cell. The dose of 2 mg/cm2 was selected based on FDA guidelines. The test formulations were 6% OXB and 6% OXB+RsC1 (1:1) in ethanol. At 0, 3, 6, 10, 12, and 24 h after dosing, 0.5 mL samples were withdrawn from the receptor chamber and immediately replaced with the same volume of fresh PBS solution to maintain a constant receptor solution volume. At the end of the experiment, the residual formulation in the donor compartment was recovered by rinsing once with the receptor chamber solution (PBS with 0.02% sodium azide and 3% cyclodextrin) and four times with methanol/water (85:15) solution (each time with 0.5 ml for 30 s). The treated areas were then dried with Kimwipes. The donor chamber cap and gasket were soaked in 5 ml of methanol/water (85:15) solution for 30 min. The skin was then removed from the diffusion cell, cut into small pieces, and extracted with 4×1 ml of methanol/water (85:15) solution. Blank skin samples were used as the control. The samples collected from the receptor chamber, the rinses, and skin extraction were centrifuged (3000×g for 15 min), and OXB content in the supernatant was determined using HPLC. Statistical analysis was performed using the Student's unpaired t-test and p<0.05 was considered significant.
The HPLC assay was conducted using a Shimadzu HPLC system (Shimadzu Scientific Instruments, Inc., Addison, IL) with an LC-20 AT pump, an SPD-20A UV-Vis detector, a SL-20A autoinjector, and a Microsorb-MV100-5 C18 column (150×4.6 mm, Agilent Technologies, Santa Clara, CA). The mobile phase was methanol and water at a ratio of 85:15. The flow rate was 0.8 ml/min. […]

[2] = background, cited from earlier work

Amount of RsC1 permeated through the skin to the receptor chamber [1] | Total OXB recovered, Average (%) ([1]; human, 24 h, 6 %) | recovery at 24 h, 6 % ([1]; human, Average total recovery of OXB from the permeation study) [%] | recovery at 24 h, 6 % ([1]; human, Recovery of OXB, Donor chamber cap, Average (%)) [%] | recovery at 24 h, 6 % ([1]; human, Recovery of OXB, Rinse 1, Average (%)) [%] | recovery at 24 h, 6 % ([1]; human, Recovery of OXB, Rinse 2, Average (%)) [%] | recovery at 24 h, 6 % ([1]; human, Recovery of OXB, Skin cut-up, Average (%)) [%] | SMILES | Fraction of OXB that can penetrate human skin ([2]; Franz diffusion cell) [%] | Fraction of OXB entering the bloodstream and eliminated through urine [2] [%]
negligible |  |  |  |  |  |  | CC1c2cc(c(O)cc2O)C(C)c2cc(c(O)cc2O)C(C)c2cc(c(O)cc2O)C(C)c2cc1c(O)cc2O (stereo not drawn) [RsC1, C-methylresorcin[4]arene] |  | 
 | 70.3 | ~75 | 0.6 | 24 | 22.9 | 2.7 | COc1ccc(C(=O)c2ccccc2)c(O)c1 [OXB, Oxybenzone] | 10 | 0.4
